Reference: patent US9352015B2, “Antimicrobial peptides” (priority 2009, dated 2016)
Converted amounts (≈) assume the structure as drawn. Where two headings read alike, the source gives them in different places. Where a SMILES comes first, the peptide text is derived from it.

Key:
[1] = Circular dichroism spectroscopy (helical structure); type: physicochemical
Gram-negative bacteria = assay: MIC against Gram-negative bacteria (V681 analog studies); type: cell-based
Experimental: Minimal inhibitory concentrations (MICs) are determined using a standard microtiter dilution method, with 3 sets of determinations, in LB (Luria-Bertani) no-salt medium (10 g of tryptone and 5 g of yeast extract per liter). In some cases, Mueller Hinton (MH) medium or Brain Heart Infusion (BHI) medium is used.
Briefly, cells were grown overnight at 37° C. in LB and diluted in the same medium. Serial dilutions of the peptides are added to the microtiter plates in a volume of 100 μl followed by 10 μl of bacteria to give a final inoculum of 5×10^5 colony-forming units/ml. Plates are incubated at 37° C. for 24 hours and MICs determined as the lowest peptide concentration that inhibited growth. Alternatively, minimal inhibitory concentrations are determined using a standard microtiter dilution method in a Mueller-Hinton (MH) medium. Briefly, cells are grown overnight at 37° C. in MH broth and diluted in the same medium. In some cases, serial dilutions of the peptides are added to the microtiter plates in a volume of 100 μl followed by 10 μl of bacteria to give a final inoculum of 1×10^5 colony-forming units/ml. Plates are incubated at 37° C. for 24 hours and MICs are determined as the lowest peptide concentration that inhibited growth.

Pseudomonas aeruginosa = conditions: geometric mean, 6 different isolates, 24 hours at 37° C.
Acinetobacter baumannii = type: cell-based; conditions: for Acinetobacter baumannii MICGM: geometric mean, 11 different isolates, 24 hours at 37° C.
Procedure, shortened: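 Microtiter broth dilution in triplicate, mainly LB no-salt medium (MH or BHI in some cases), peptides serially diluted, final inoculum 5×10^5 CFU/ml (1×10^5 CFU/ml in MH variant); 24 h at 37° C. MIC is the lowest peptide concentration inhibiting growth, given in micromolar against clinical isolates.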

[2] = Hemolytic activity against human erythrocytes (HC50 / MHC, microtiter dilution); type: cell-based; conditions: 1% human erythrocytes, pH 7.4
Experimental: (§1) Hemoglobin release was determined spectrophotometrically at 570 nm. The hemolytic activity was determined as the peptide concentration that caused 50% hemolysis of erythrocytes after 18 h (HC50). […] HC50 was determined by a plot of peptide concentration versus percent lysis.

human erythrocytes = assay: as above; type: cell-based
Experimental: as §1

[3] = test system: Methicillin Resistant Staphylococcus aureus (MRSA) and Staphylococcus aureus; type: cell-based
Procedure, shortened: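 MICs by microtiter broth dilution in triplicate determinations, mostly LB no-salt medium (sometimes MH or BHI), final inoculum 5×10^5 CFU/ml (1×10^5 CFU/ml in the MH variant), 24 h at 37 °C. MIC is the lowest peptide concentration inhibiting growth; tested on 20 clinical MRSA and S. aureus isolates.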

Row | Compound | Pseudomonas aeruginosa MICGM (Pseudomonas aeruginosa) [µM] | Antimicrobial Activity MIC against A. baumannii (Acinetobacter baumannii) [µM] | MIC GM (geometric mean) (Acinetobacter baumannii) [µM] | Acinetobacter baumannii MICGM (Acinetobacter baumannii) [µM] | HC50 at 18 h ([2]; human) [µM] | MIC GM (geometric mean) [3] [µM] | Hemolytic activity HC50 (human erythrocytes) [µM] | other results
1 | PLL: V681 with L-Leu at position 11 (polar face), SEQ ID NO:13 (KWKSFLKTFKLAVKTVLHTALKAISS) |  |  |  |  |  |  |  | [θ]222 molar ellipticity ([1]; benign conditions (100 mM KCl, 50 mM aq. PO4, pH 7)): −10,850
2 | CC[C@H](C)[C@H](NC(=O)[C@H](C)NC(=O)[C@H](CCCCN)NC(=O)[C@H](CC(C)C)NC(=O)[C@H](C)NC(=O)[C@@H](NC(=O)[C@H](Cc1c[nH]cn1)NC(=O)[C@H](CC(C)C)NC(=O)[C@@H](NC(=O)[C@@H](NC(=O)[C@H](CCCCN)NC(=O)[C@H](CC(C)C)NC(=O)[C@H](C)NC(=O)[C@H](CO)NC(=O)[C@H](CCCCN)NC(=O)[C@H](Cc1ccccc1)NC(=O)[C@@H](NC(=O)[C@H](CCCCN)NC(=O)[C@H](CC(C)C)NC(=O)[C@H](Cc1ccccc1)NC(=O)[C@H](CO)NC(=O)[C@H](CCCCN)NC(=O)[C@H](Cc1c[nH]c2ccccc12)NC(=O)[C@H](CCCCN)NC(C)=O)[C@@H](C)O)[C@@H](C)O)C(C)C)[C@@H](C)O)C(=O)N[C@@H](CO)C(=O)N[C@@H](CO)C(N)=O [NLL] (Ac-KWKSFLKTFKSALKTVLHTALKAISS-NH2) |  |  |  |  |  |  |  | MIC against Gram-negative bacteria (Gram-negative bacteria): 12.7 µg/mL (≈ 4.27 µM)
3 | Ac-ELEKGGLEGEKGGKELEK-amide (Ac-ELEKGGLEGEKGGKELEK-NH2) [peptide C] |  |  |  |  |  |  |  | [θ]222 molar ellipticity ([1]; 50% TFE, 5° C.): −3,950
4 | CC(=O)N[C@H](CCCCN)C(=O)N[C@H](CC(C)C)C(=O)N[C@H](CCCCN)C(=O)N[C@H](CO)C(=O)N[C@H](CC(C)C)C(=O)N[C@H](CC(C)C)C(=O)N[C@H](CCCCN)C(=O)N[C@@H](C(=O)N[C@H](CC(C)C)C(=O)N[C@H](CO)C(=O)N[C@H](CCCCN)C(=O)N[C@H](C)C(=O)N[C@H](CCCCN)C(=O)N[C@H](CCCCN)C(=O)N[C@H](CCCCN)C(=O)N[C@H](CCCCN)C(=O)N[C@H](CC(C)C)C(=O)N[C@H](CCCCN)C(=O)N[C@@H](C(=O)N[C@H](CC(C)C)C(=O)N[C@H](CC(C)C)C(=O)N[C@H](CCCCN)C(=O)N[C@H](C)C(=O)N[C@H](CC(C)C)C(=O)N[C@H](CO)C(=O)N[C@H](CCCCN)C(N)=O)[C@H](C)O)[C@H](C)O [Peptide D16, Ac-KLKSLLKTLSKAKKKKLKTLLKALSK-amide] | 1.5 | 0.4 | 0.4 (≈ 1.19 µg/mL) | 0.4 | 1340 | 48.3 (≈ 144 µg/mL) |  | Fold more active than D1 against A. baumannii (Acinetobacter baumannii): ~3 fold; Fold less hemolytic than D1 (human erythrocytes): 9.5
5 | CC[C@@H](C)[C@@H](NC(=O)[C@@H](C)NC(=O)[C@@H](CCCCN)NC(=O)[C@@H](CC(C)C)NC(=O)[C@@H](CC(C)C)NC(=O)[C@H](NC(=O)[C@@H](CCCCN)NC(=O)[C@@H](CC(C)C)NC(=O)[C@@H](CCCCN)NC(=O)[C@@H](CCCCN)NC(=O)[C@@H](CCCCN)NC(=O)[C@@H](CCCCN)NC(=O)[C@@H](C)NC(=O)[C@@H](CCCCN)NC(=O)[C@@H](CO)NC(=O)[C@@H](Cc1ccccc1)NC(=O)[C@H](NC(=O)[C@@H](CCCCN)NC(=O)[C@@H](CC(C)C)NC(=O)[C@@H](Cc1ccccc1)NC(=O)[C@@H](CO)NC(=O)[C@@H](CCCCN)NC(=O)[C@@H](Cc1c[nH]c2ccccc12)NC(=O)[C@@H](CCCCN)NC(C)=O)[C@H](C)O)[C@H](C)O)C(=O)N[C@H](CO)C(=O)N[C@H](CCCCN)C(N)=O [Peptide D14, Ac-KWKSFLKTFSKAKKKKLKTLLKAISK-amide] | 2.5 | 0.8 | 0.8 (≈ 2.5 µg/mL) | 0.8 | 352 | 40.1 (≈ 125 µg/mL) | 351.5 | 
6 | CC(=O)N[C@H](CCCCN)C(=O)N[C@H](CC(C)C)C(=O)N[C@H](CCCCN)C(=O)N[C@H](CO)C(=O)N[C@H](CC(C)C)C(=O)N[C@H](CC(C)C)C(=O)N[C@H](CCCCN)C(=O)N[C@@H](C(=O)N[C@H](CC(C)C)C(=O)N[C@H](CO)C(=O)N[C@H](CCCCN)C(=O)N[C@H](C)C(=O)N[C@H](CCCCN)C(=O)N[C@H](CCCCN)C(=O)N[C@H](CCCCN)C(=O)N[C@H](CC(C)C)C(=O)N[C@H](CC(C)C)C(=O)N[C@H](CCCCN)C(=O)N[C@@H](C(=O)N[C@H](C)C(=O)N[C@H](CC(C)C)C(=O)N[C@H](CCCCN)C(=O)N[C@H](C)C(=O)N[C@H](CC(C)C)C(=O)N[C@H](CO)C(=O)N[C@H](CCCCN)C(N)=O)[C@H](C)O)[C@H](C)O [Peptide D15, Ac-KLKSLLKTLSKAKKKLLKTALKALSK-amide] | 1 | 0.5 | 0.5 (≈ 1.46 µg/mL) | 0.5 |  | 8.1 (≈ 23.7 µg/mL) | 169.6 | HC50 at 18 h ([2]; human erythrocytes, concentration of peptide that results in 50% hemolysis after 18 hours at 37° C., read-out: Hemolytic activity HC50): 170 µM; Hemolytic activity HC50 (human erythrocytes; 50% hemolysis after 18 hours at 37° C.): 170 µM
7 | CC[C@@H](C)[C@@H](NC(=O)[C@@H](C)NC(=O)[C@@H](CCCCN)NC(=O)[C@@H](CC(C)C)NC(=O)[C@@H](C)NC(=O)[C@H](NC(=O)[C@@H](CCCCN)NC(=O)[C@@H](CC(C)C)NC(=O)[C@H](NC(=O)[C@@H](CCCCN)NC(=O)[C@@H](CCCCN)NC(=O)[C@@H](CCCCN)NC(=O)[C@@H](C)NC(=O)[C@@H](CCCCN)NC(=O)[C@@H](CO)NC(=O)[C@@H](Cc1ccccc1)NC(=O)[C@H](NC(=O)[C@@H](CCCCN)NC(=O)[C@@H](CC(C)C)NC(=O)[C@@H](Cc1ccccc1)NC(=O)[C@@H](CO)NC(=O)[C@@H](CCCCN)NC(=O)[C@@H](Cc1c[nH]c2ccccc12)NC(=O)[C@@H](CCCCN)NC(C)=O)[C@H](C)O)C(C)C)[C@H](C)O)C(=O)N[C@H](CO)C(=O)N[C@H](CCCCN)C(N)=O [Peptide D11, Ac-KWKSFLKTFSKAKKKVLKTALKAISK-amide] | 1.6 | 0.6 | 0.6 (≈ 1.83 µg/mL) | 0.6 | 254 | 14.0 (≈ 42.7 µg/mL) | 254.1 | 
8 | CC(=O)N[C@H](CCCCN)C(=O)N[C@H](CC(C)C)C(=O)N[C@H](CCCCN)C(=O)N[C@H](CO)C(=O)N[C@H](CC(C)C)C(=O)N[C@H](CC(C)C)C(=O)N[C@H](CCCCN)C(=O)N[C@@H](C(=O)N[C@H](CC(C)C)C(=O)N[C@H](CO)C(=O)N[C@H](CCCCN)C(=O)N[C@H](CC(C)C)C(=O)N[C@H](CCCCN)C(=O)N[C@H](CCCCN)C(=O)N[C@H](CCCCN)C(=O)N[C@H](CCCCN)C(=O)N[C@H](CC(C)C)C(=O)N[C@H](CCCCN)C(=O)N[C@@H](C(=O)N[C@H](CC(C)C)C(=O)N[C@H](CC(C)C)C(=O)N[C@H](CCCCN)C(=O)N[C@H](CC(C)C)C(=O)N[C@H](CC(C)C)C(=O)N[C@H](CO)C(=O)N[C@H](CCCCN)C(N)=O)[C@H](C)O)[C@H](C)O [Peptide D24, Ac-KLKSLLKTLSKLKKKKLKTLLKLLSK-amide] | 3.9 |  |  | 1.9 |  |  | 123 | 
